Experimental data: publication PMC10796807 (Computational and Structural Biotechnology Journal, 2023)
Where two headings read alike, the source gives them in different places.

How the values were obtained:
human TRPV2 = settings: ref [40]; cited from earlier work
mouse or rat TRPV2 = settings: read-out: reported EC50 values; ref [40]; cited from earlier work
rat TRPV2 (rTRPV2-eGFP) = target: T1, rat TRPV2 (rTRPV2-eGFP) (Rattus norvegicus, UniProt Q9WUD2); type: biochemical; settings: for EC50: no inhibitor
T1 sequence (Q9WUD2 1-761): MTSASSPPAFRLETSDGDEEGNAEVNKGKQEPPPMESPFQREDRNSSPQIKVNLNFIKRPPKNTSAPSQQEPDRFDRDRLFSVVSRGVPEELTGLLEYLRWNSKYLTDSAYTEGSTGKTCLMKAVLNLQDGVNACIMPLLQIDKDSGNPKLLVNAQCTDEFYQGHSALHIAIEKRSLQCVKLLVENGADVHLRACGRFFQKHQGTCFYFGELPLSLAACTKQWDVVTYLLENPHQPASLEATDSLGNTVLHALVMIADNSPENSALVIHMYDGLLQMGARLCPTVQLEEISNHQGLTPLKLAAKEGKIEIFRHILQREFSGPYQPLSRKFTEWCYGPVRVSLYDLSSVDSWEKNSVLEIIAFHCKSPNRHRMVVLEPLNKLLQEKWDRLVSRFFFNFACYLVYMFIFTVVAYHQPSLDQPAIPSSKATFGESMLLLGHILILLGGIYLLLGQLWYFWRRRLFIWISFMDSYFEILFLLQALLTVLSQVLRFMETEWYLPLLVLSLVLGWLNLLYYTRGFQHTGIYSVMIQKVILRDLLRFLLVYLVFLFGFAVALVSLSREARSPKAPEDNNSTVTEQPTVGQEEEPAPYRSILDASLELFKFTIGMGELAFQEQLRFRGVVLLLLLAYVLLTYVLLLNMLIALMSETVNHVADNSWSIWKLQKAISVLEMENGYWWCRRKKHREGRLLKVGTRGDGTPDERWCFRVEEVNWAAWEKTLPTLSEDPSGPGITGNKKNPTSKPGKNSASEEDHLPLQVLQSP

rat TRPV2 = settings: cells pretreated with 2.5 mM PBCD; ref [22]; cited from earlier work

For `C=C(C)[C@@H]1CCC(C)=C[C@H]1c1c(O)cc(CCCCC)cc1O` [CBD, cannabidiol], the activation (human TRPV2) is given as “no activation of human TRPV2”, the EC50 (mouse or rat TRPV2) is given as 0.01 to 1 µM and the EC50 (rat TRPV2 (rTRPV2-eGFP); EC50 (Bayesian, 90% confidence interval in brackets), TRPV2-GFP vesicles) is given as 110 µM. The EC50 (rat TRPV2) was 3.7 µM.
In the case of `O=C(O)c1ccc(S(=O)(=O)N2CCCCC2)cc1` [Compound 6, 4-(Piperidine-1-sulfonyl)-benzoic acid], the “Confidence that EC50 is lower than that of PBCD (Bayesian hypothesis test)” value (rat TRPV2 (rTRPV2-eGFP)) is reported as 84%.
In the case of `COc1cc(CNC(=O)CCCC/C=C/C(C)C)ccc1O` [capsaicin], the “Activation/modulation of TRPV2 (fluorescence signal)” value (rat TRPV2 (rTRPV2-eGFP); negative controls, TRPV2-GFP vesicles) is reported as “no measurable increase of fluorescence signal”.
lysophosphatidylcholine [LPC] showed an EC50 (rat TRPV2 (rTRPV2-eGFP); read-out: EC50 (Bayesian, 90% confidence interval in brackets), TRPV2-GFP vesicles) of 36 µM.
